US20030003050A1 (priority 2001, published 2003)

What was measured:
B6μ, Heμ and CXμ mice [1] = details: mouse, in vivo, ip, 10 mg/kg
B6μ, Heμ and CXμ mice [2] = assay: hot-plate test; format: in vivo, mouse; details: CXμ mice vs B6μ and Heμ littermates; 10 mg/kg intraperitoneal; 20 minutes after injection; plate 52.0°C; p<0.05

CN1CC[C@]23c4c5ccc(O)c4O[C@H]2[C@@H](O)C=C[C@H]3[C@H]1C5.Cl [morphine, Morphine hydrochloride]
latency of response to heat stimulus (drug-induced analgesia), tail-flick test (B6μ, Heμ and CXμ mice [1]): significantly shorter latency than the littermates | latency of response to heat stimulus (first jumping; drug-induced analgesia), hot-plate test (B6μ, Heμ and CXμ mice [2]): significantly shorter latency than the littermates
